Measured values as given in PubChem BioAssay AID1259407 (Chemical Carcinogenesis Research Information System (CCRIS), 2018).
Calls of active or inactive are those of the source. No rule for the calls is given here.

Test system: CCRIS mutagenicity, Ames/micronucleus/aberration tests
Test: CCRIS mutagenicity studies
[1] = Test System: AMES SALMONELLA TYPHIMURIUM, Strain/Indicator: TA97, Metabolic Activation: HAMSTER, LIVER, S-9, AROCLOR 1254 (10 OR 30%), Method: PREINCUBATION
[2] = Test System: AMES SALMONELLA TYPHIMURIUM, Strain/Indicator: TA97, Metabolic Activation: NONE, Method: PREINCUBATION
[3] = Test System: AMES SALMONELLA TYPHIMURIUM, Strain/Indicator: TA97, Metabolic Activation: RAT, LIVER, S-9, AROCLOR 1254 (10 OR 30%), Method: PREINCUBATION
[4] = Test System: AMES SALMONELLA TYPHIMURIUM, Strain/Indicator: TA98, Metabolic Activation: HAMSTER, LIVER, S-9, AROCLOR 1254 (10 OR 30%), Method: PREINCUBATION
[5] = Test System: AMES SALMONELLA TYPHIMURIUM, Strain/Indicator: TA98, Metabolic Activation: NONE, Method: PREINCUBATION
[6] = Test System: AMES SALMONELLA TYPHIMURIUM, Strain/Indicator: TA98, Metabolic Activation: NONE, Method: STANDARD PLATE
[7] = Test System: AMES SALMONELLA TYPHIMURIUM, Strain/Indicator: TA98, Metabolic Activation: RAT, LIVER, S-9, AROCLOR 1254 (10 OR 30%), Method: PREINCUBATION
[8] = Test System: AMES SALMONELLA TYPHIMURIUM, Strain/Indicator: TA98, Metabolic Activation: RAT, LIVER, S-9, AROCLOR 1254, Method: STANDARD PLATE
[9] = Test System: AMES SALMONELLA TYPHIMURIUM, Strain/Indicator: TA100, Metabolic Activation: HAMSTER, LIVER, S-9, AROCLOR 1254 (10 OR 30%), Method: PREINCUBATION
[10] = Test System: AMES SALMONELLA TYPHIMURIUM, Strain/Indicator: TA100, Metabolic Activation: NONE, Method: PREINCUBATION
[11] = Test System: AMES SALMONELLA TYPHIMURIUM, Strain/Indicator: TA100, Metabolic Activation: NONE, Method: STANDARD PLATE
[12] = Test System: AMES SALMONELLA TYPHIMURIUM, Strain/Indicator: TA100, Metabolic Activation: RAT, LIVER, S-9, AROCLOR 1254 (10 OR 30%), Method: PREINCUBATION
[13] = Test System: AMES SALMONELLA TYPHIMURIUM, Strain/Indicator: TA100, Metabolic Activation: RAT, LIVER, S-9, AROCLOR 1254, Method: STANDARD PLATE
[14] = Test System: AMES SALMONELLA TYPHIMURIUM, Strain/Indicator: TA1535, Metabolic Activation: HAMSTER, LIVER, S-9, AROCLOR 1254 (10 OR 30%), Method: PREINCUBATION
[15] = Test System: AMES SALMONELLA TYPHIMURIUM, Strain/Indicator: TA1535, Metabolic Activation: NONE, Method: PREINCUBATION
[16] = Test System: AMES SALMONELLA TYPHIMURIUM, Strain/Indicator: TA1535, Metabolic Activation: RAT, LIVER, S-9, AROCLOR 1254 (10 OR 30%), Method: PREINCUBATION
[17] = Test System: AMES SALMONELLA TYPHIMURIUM, Strain/Indicator: TA1537, Metabolic Activation: NONE, Method: STANDARD PLATE

Nc1nc(N)c(-c2ccccc2)s1
mutagenic call (Test System: MOUSE LYMPHOMA, Strain/Indicator: L5178Y (TK+/TK-), Metabolic Activation: NONE, Method: SUSPENSION/PLATE): active; positive. reevaluation of results: inconclusive | mutagenic call (Test System: MOUSE LYMPHOMA, Strain/Indicator: L5178Y (TK+/TK-), Metabolic Activation: RAT, LIVER, S-9, AROCLOR 1254, Method: SUSPENSION/PLATE): active; positive. reevaluation of results: inconclusive

CC(=O)O[C@]1(C(C)=O)CC[C@H]2[C@@H]3C[C@H](C)C4=CC(=O)CC[C@]4(C)[C@H]3CC[C@@]21C
mutagenic call [1]: inactive; negative | mutagenic call [2]: inactive; negative | mutagenic call [3]: inactive; negative | mutagenic call [4]: inactive; negative | mutagenic call [5]: inactive; negative | mutagenic call [6]: inactive; negative | mutagenic call [7]: inactive; negative | mutagenic call [8]: inactive; negative | mutagenic call [9]: inactive; negative | mutagenic call [10]: inactive; negative | mutagenic call [11]: inactive; negative | mutagenic call [12]: inactive; negative | mutagenic call [13]: inactive; negative | mutagenic call [14]: inactive; negative | mutagenic call [15]: inactive; negative | mutagenic call (Test System: AMES SALMONELLA TYPHIMURIUM, Strain/Indicator: TA1535, Metabolic Activation: NONE, Method: STANDARD PLATE): inactive; negative | mutagenic call [16]: inactive; negative | mutagenic call (Test System: AMES SALMONELLA TYPHIMURIUM, Strain/Indicator: TA1535, Metabolic Activation: RAT, LIVER, S-9, AROCLOR 1254, Method: STANDARD PLATE): inactive; negative | mutagenic call [17]: inactive; negative | mutagenic call (Test System: AMES SALMONELLA TYPHIMURIUM, Strain/Indicator: TA1537, Metabolic Activation: RAT, LIVER, S-9, AROCLOR 1254, Method: STANDARD PLATE): inactive; negative | mutagenic call (Test System: AMES SALMONELLA TYPHIMURIUM, Strain/Indicator: TA1538, Metabolic Activation: NONE, Method: STANDARD PLATE): inactive; negative | mutagenic call (Test System: AMES SALMONELLA TYPHIMURIUM, Strain/Indicator: TA1538, Metabolic Activation: RAT, LIVER, S-9, AROCLOR 1254, Method: STANDARD PLATE): inactive; negative | mutagenic call (Test System: CHINESE HAMSTER V-79, Strain/Indicator: V-79 (HGPRT)/6-THIOGUANINE, Metabolic Activation: NONE): inactive; negative | mutagenic call (Test System: CHINESE HAMSTER V-79, Strain/Indicator: V-79 (HGPRT)/6-THIOGUANINE, Metabolic Activation: RAT, LIVER, S-9, AROCLOR 1254): inactive; negative

CC(C)Cl
mutagenic call (End Point: In vitro micronucleus, Test System: Chinese Hamster Ovary (CHO-WBL) cells, Metabolic Activation: None): inactive; negative | mutagenic call (Test System: AMES SALMONELLA TYPHIMURIUM, Strain/Indicator: TA100, Metabolic Activation: NONE, Method: DESICCATOR): active; positive | mutagenic call (Test System: AMES SALMONELLA TYPHIMURIUM, Strain/Indicator: TA100, Metabolic Activation: RAT, LIVER, S-9, AROCLOR 1254, Method: DESICCATOR): active; positive

CC(=O)N(O)c1ccc2ccc3cccc4ccc1c2c34
mutagenic call (Test System: AMES SALMONELLA TYPHIMURIUM, Strain/Indicator: TA98(1,8-DNP6), Metabolic Activation: NONE, Method: STANDARD PLATE): active; positive | mutagenic call (Test System: AMES SALMONELLA TYPHIMURIUM, Strain/Indicator: TA98(1,8-DNP6), Metabolic Activation: RAT, LIVER, S-9, AROCLOR 1254, Method: STANDARD PLATE): active; positive | mutagenic call (Test System: AMES SALMONELLA TYPHIMURIUM, Strain/Indicator: TA98(NR), Metabolic Activation: NONE, Method: STANDARD PLATE): active; positive | mutagenic call (Test System: AMES SALMONELLA TYPHIMURIUM, Strain/Indicator: TA98(NR), Metabolic Activation: RAT, LIVER, S-9, AROCLOR 1254, Method: STANDARD PLATE): active; positive | mutagenic call [6]: active; positive | mutagenic call [8]: active; positive

CN(C)CCNC(=O)c1cccc2cc3ccccc3nc12
mutagenic call [17]: active; positive

COc1cc(O)c2c(=O)oc3cc(O)cc(C)c3c2c1
mutagenic call [6]: inactive; negative | mutagenic call (Test System: AMES SALMONELLA TYPHIMURIUM, Strain/Indicator: TA98, Metabolic Activation: RAT LIVER S-9, AROCLOR 1254, Method: STANDARD PLATE): inactive; negative | mutagenic call [8]: inactive; negative | mutagenic call [11]: inactive; negative | mutagenic call (Test System: AMES SALMONELLA TYPHIMURIUM, Strain/Indicator: TA100, Metabolic Activation: RAT LIVER S-9, AROCLOR 1254, Method: STANDARD PLATE): inactive; negative | mutagenic call [13]: inactive; negative | mutagenic call (Test System: Ames Salmonella typhimurium, Strain/Indicator: TA97, Metabolic Activation: None, Method: Standard plate): inactive; negative. nitrosation did not increase mutagenicity | mutagenic call (Test System: Ames Salmonella typhimurium, Strain/Indicator: TA97, Metabolic Activation: Rat, Liver, S-9, Aroclor 1254 (10%), Method: Standard plate): inactive; negative. nitrosation did not increase mutagenicity | mutagenic call (Test System: Ames Salmonella typhimurium, Strain/Indicator: TA102, Metabolic Activation: None, Method: Standard plate): inactive; negative. nitrosation did not increase mutagenicity | mutagenic call (Test System: Ames Salmonella typhimurium, Strain/Indicator: TA102, Metabolic Activation: Rat, Liver, S-9, Aroclor 1254 (10%), Method: Standard plate): inactive; negative. nitrosation did not increase mutagenicity | mutagenic call (Test System: Ames Salmonella typhimurium, Strain/Indicator: TA104, Metabolic Activation: None, Method: Standard plate): inactive; negative. nitrosation did not increase mutagenicity | mutagenic call (Test System: Ames Salmonella typhimurium, Strain/Indicator: TA104, Metabolic Activation: Rat, Liver, S-9, Aroclor 1254 (10%), Method: Standard plate): inactive; negative. nitrosation did not increase mutagenicity | mutagenic call (Test System: E. COLI, Strain/Indicator: ND-160, Metabolic Activation: NONE, Method: STANDARD PLATE): active; positive

N[C@@H](Cc1ccccc1)C(=O)O
mutagenic call [6]: inactive; negative | mutagenic call [8]: inactive; negative | mutagenic call [11]: inactive; negative | mutagenic call [13]: inactive; negative

CCCCCCCCCCCCCCCCN
mutagenic call [1]: inactive; negative | mutagenic call [2]: inactive; negative | mutagenic call [3]: inactive; negative | mutagenic call [4]: inactive; negative | mutagenic call [5]: inactive; negative | mutagenic call [7]: inactive; negative | mutagenic call [9]: inactive; negative | mutagenic call [10]: inactive; negative | mutagenic call [12]: inactive; negative | mutagenic call [14]: inactive; negative | mutagenic call [15]: inactive; negative | mutagenic call [16]: inactive; negative
